Measured values taken from PMC7053711, “A G protein–coupled receptor mediates neuropeptide-induced oocyte maturation in the jellyfish Clytia” (PLoS Biology, 2020).
Peptide text beside a SMILES is read from it.

System: fully grown oocytes isolated from WT gonads
Assay: Oocyte maturation assay, wild-type isolated oocytes (GVBD)
Type: cell-based, Clytia hemisphaerica
Details: for Oocyte maturation (number) / Percentage of Oocytes maturing: 0,1uM WPRPa, wild type
Source text: Fig 4 Oocyte maturation failure in MIHR mutant medusae. Oocyte maturation assays performed using isolated gonads (A, B) or isolated oocytes (C) from MIHR mutant jellyfish compared to WT. In A and C, bar heights represent mean percentages of 3 independent experiments and error bars show standard deviations. Total gonad or oocyte numbers for each treatment are indicated in gray. (A) Spawning response of isolated gonads from WT and n5-23 female medusae. Three treatments were compared as indicated above each panel: Light: light stimulation after incubation in the dark; MIH: treatment of light-maintained gonads with 100 nM WPRPamide; cAMP: treatment of light-maintained gonads with 4 mM Br-cAMP. […] Full datasets from three independent experiments are available in S3 Data. (B) Light microscope images illustrating gonads from an equivalent experiment performed with n5-13 female MIHR mutant medusae 120 minutes after the indicated treatments. Scale bar: 500 μm. […] Full datasets from 3 independent experiments are available in S3 Data. Br-cAMP, bromoadenosine 3′,5′-cyclic monophosphate; cAMP, cyclic adenosine monophosphate; KO, knockout; MIH, maturation-inducing hormone; MIHR, MIH receptor; WT, wild-type.
Fully grown oocytes were isolated manually from dissected gonads of wild-type and MIHR KO mutant jellyfish prepared as above. Maturation assays were performed in wells of 96-well plates or small plastic petri dishes lined with 2% agarose in MFSW. Spontaneous maturation occurs at a low frequency in control oocytes. To test MIH-induced maturation, 10 μL WPRPamide from 1 μM solution in MFSW was added to a final concentration of 100 nM. In some experiments, Br-cAMP from a 20 mM stock in H2O was used at a final concentration of 4 mM. GVBD was scored at 30 minutes, every 5 minutes, depending on experiments.
Supplementary file pbio.3000614.s013.xlsx: S3 Data Numerical data corresponding to Fig 4A and 4C. The first tab collects all the raw data from 3 independent gonad spawning assays. Information corresponding to the Fisher exact tests is also shown. […] The means and standard deviations were used to prepare the graph in Fig 4C. Information corresponding to the Fisher exact tests is also shown. (XLSX) Click here for additional data file.

[1] = 100 nM WPRPamide or 4 mM Br-cAMP
[2] = WPRPa, pooled n=47, Fisher exact test vs MIHR KO significant at p < .01

N=C(N)NCCC[C@H](NC(=O)[C@@H]1CCCN1C(=O)[C@@H](N)Cc1c[nH]c2ccccc12)C(=O)N1CCC[C@H]1C(N)=O [WPRPa] (H-WPRP-NH2; N-terminus assumed)
Oocyte maturation (number) (replicate 1, total 13): 13 | Percentage of Oocytes maturing (replicate 1, total 13): 100.00 | Oocyte maturation (number) (replicate 2, total 19): 19 | Percentage of Oocytes maturing (replicate 2, total 19): 100.00 | Oocyte maturation (number) (replicate 3, total 15.00): 15 | Percentage of Oocytes maturing (replicate 3, total 15.00): 100.00 | maturation of isolated WT oocytes [1]: triggered maturation of WT oocytes | time to visible GVBD, isolated WT oocytes [1]: 20 to 30 min | Maturing oocytes, WT YES [2]: 47 | Non-maturing oocytes, WT NO [2]: 0
